Reference: patent US8178135B2, “Aqueous solution of conophylline and/or conophyllidine” (Keio University, priority 2006, dated 2012)

Experiments:
[1] = Amounts in lysate, acid extract and fractions after neutralization to pH 6.0, centrifugation and ultrafiltration (HPLC); assay type: physicochemical; settings: for amount in Aqueous extract: clarified 0.1 N hydrochloric acid extract; for amount in Lysate: distilled water, 50° C. 30 min, centrifuged supernatant; for amount in Centrifuged supernatant: extract adjusted to pH 6.0, 1,500×g 5 min; for amount in Centrifuged precipitate: extract adjusted to pH 6.0, precipitate dissolved in equal volume of 50% ethanol; for amount in UF filtrate: pH 6.0, passed ultrafiltration membrane; for amount in UF filtrate / amount in UF debris: cut-off 50,000; for amount in UF debris: pH 6.0, retained on ultrafiltration membrane
Experimental: Conophylline and conophyllidine were analyzed by reversed phase HPLC in a high pressure gradient mode using a YMC-Pack Pro C18 RS column (4.6 mm×250 mm; manufactured by YMC Co., Ltd.). The mobile phase consisted of 1% by volume acetic acid as solvent A and acetonitrile as solvent B. The gradient program was set to start with 10% B at a flow rate of 1 ml/min, and the portion of B was increased linearly to 55% over 25 min. The column temperature was 40° C. and UV absorption was monitored at the wavelength of 335 nm. The reference solutions of conophylline and conophyllidine were prepared immediately before measurement and their concentrations were calculated from the absorbance at 335 nm of the solutions prepared.
200 ml of 0.1 N hydrochloric acid was added to 4 g of pulverized product of the dried leaves obtained by the same method as in Example 2, which was then extracted at 50° C. for 30 min. After the debris was removed by paper filtration, the extract was ultrafiltrated with pencil-type module SLP-0053 manufactured by Asahi Kasei Corporation (molecular weight cut-off 10,000) and 165 ml of filtrate was recovered. The pH of the filtrate was adjusted by gradually adding sodium carbonate aqueous solution and the precipitate formed was recovered by centrifugation. The precipitate was then vacuum-evaporated to yield 70 mg of dried product. This dried product contained 9.8 μg of conophylline and 13.3 μg of conophyllidine per mg
The extract was prepared and clarified by removing debris by paper filtration in the same method as in Example 5. Then 100 ml of the clarified extract was adjusted to pH 6.0 with sodium hydroxide aqueous solution. This solution was centrifuged (1,500×g, 5 min) to separate into a supernatant (centrifuged supernatant) and precipitate (centrifuged precipitate). Next, the precipitate was dissolved in an equal volume of 50% ethanol, and the amounts of the active ingredients (conophylline and conophyllidine) in the clarified extract, the centrifuged supernatant, and the centrifuged precipitate were measured by HPLC. Further, the amounts of the active ingredient in the supernatant (lysate) obtained by adding 200 ml of distilled water to 4 g of the pulverized product of the dried leaves of Tabernaemontana divaricata and heating at 50° C. for 30 min, followed by centrifugation at 1,500×g for 5 min were also measured by HPLC.
Further, a sodium hydroxide aqueous solution was added to 1 ml of the above-described clarified extract to adjust pH to 6.0. This extract was treated with an ultrafiltration membrane USY-5 (molecular weight cut-off: 50,000), manufactured by Advantech Co., Ltd. and the filtrate which had passed through the membrane was recovered (UF filtrate). At the same time, the remaining component on the membrane was dissolved and recovered using 1 ml of 50% ethanol (UF debris), and the amounts of the active ingredients in the UF filtrate and UF debris were measured by HPLC (Table 5). As a result, no amount of conophylline or conophyllidine was not detected in the filtrate at all; almost all was present in the fraction which had not permeated through the ultrafiltration membrane.

[2] = Concentration dissolved after neutralization with pectin added (partially purified by fractionation); assay type: physicochemical; settings: for concentration in solution: Control: filled up only with distilled water, not neutralized
Experimental: 10 mg of the dried product obtained in Example 5 was dissolved in 5 ml of 0.1 N hydrochloric acid. This solution was dispensed in 0.5 ml aliquots into test tubes. Then, 10 μl or 100 μl of a 0.25% aqueous solution of pectin (Genue pectin type YM-150-LJ) was added and filled up to a total volume of 2 ml with distilled water. Meanwhile, only distilled water was added to some of the test tubes in a total volume of 2 ml.
(§1) Subsequently, the solution, after being adjusted to pH 6.0 with sodium carbonate aqueous solution, was filled up to a total volume of 2.5 ml and was centrifuged at 5,000×g for 10 min. The supernatant was recovered and the concentrations of conophylline and conophyllidine were measured. Meanwhile, the concentrations of conophylline and conophyllidine in the solutions, which was made by filled up to a total volume of 2.5 ml only with distilled water, were also measured as the control.

[3] = Concentration dissolved after neutralization with pectin or sodium polyacrylate (ethanol crude extract); assay type: physicochemical; settings: for concentration in solution: Control: filled up only with distilled water, not neutralized
Experimental: Crude extract (250 mg) obtained in Example 1 was dissolved in 5 ml of 0.1 N hydrochloric acid. Then, after insoluble matter was removed by centrifugation (1,500×g, 5 min), the solution was dispensed in 0.5 ml aliquots into test tubes. Then, 10 μl or 100 μl of a 0.2% aqueous solution of pectin (Genue pectin type YM-150-LJ) or 0.2% aqueous solution of sodium polyacrylate (degrees of polymerization=30,000 to 40,000, manufactured by Wako Pure Chemical Industries, Ltd.) was added and filled up to a total volume of 2 ml with distilled water. Meanwhile, only distilled water was added to some of the test tubes in a total volume of […] (without an additive).
as §1, with “volume of 2 ml and” for “volume of 2.5 ml and”

pancreatic β cells = settings: cited from earlier work
[4] = Storing stability of water-soluble composition extracted with citric acid; assay type: physicochemical; settings: dried composition
Experimental: 0.1 M citric acid was added to the pulverized product of the dried leaves obtained by the same method as in Example 2, and stirred at 60° C. After insoluble matter was filtered off, the solution was neutralized to pH 6.0 with 0.1 N sodium hydroxide, dispensed in 1 ml aliquots into test tubes, and concentrated to dryness by centrifugation.
First, 1 ml of 50% ethanol was added to one of the test tubes to dissolve solid content. The solution was filtered through a 0.2 μm membrane filter, and then conophylline and conophyllidine were analyzed by HPLC.
Next, the remaining test tubes were divided into five groups, each of which being stored at −30° C. (shielded from light), 4° C. (shielded from light), 4° C. (not shielded from light), 30° C. (shielded from light), and 50° C. (shielded from light). After a lapse of a certain period of time, the composition was dissolved by addition of 50% ethanol, filtered, and analyzed by HPLC.

[5] = pH 6.0, Sodium polyacrylate 10 μg/ml
[6] = pH 6.0, Sodium polyacrylate 100 μg/ml

SMILES	amount in Aqueous extract [1]	amount in Lysate [1]	amount in Centrifuged supernatant [1]	amount in Centrifuged precipitate [1]	amount in UF filtrate [1]	amount in UF debris [1]	concentration in solution [2]	concentration in supernatant after neutralization ([2]; pH 6.0, Pectin 10 μg/ml)	concentration in supernatant after neutralization ([2]; pH 6.0, Pectin 100 μg/ml)	concentration in supernatant after neutralization ([2]; pH 6.0, pectin 0 μg/ml)	concentration in solution [3]	concentration in supernatant after neutralization ([3]; pH 6.0, Pectin 10 μg/ml)	concentration in supernatant after neutralization ([3]; pH 6.0, Pectin 100 μg/ml)	concentration in supernatant after neutralization [3, 5]	concentration in supernatant after neutralization [3, 6]	concentration in supernatant after neutralization ([3]; pH 6.0, additive None)	regeneration of pancreatic β cells (pancreatic β cells)	storing stability ([4]; 4° C., not shielded from light)	storing stability ([4]; −30, 4, 30, 50° C., shielded from light)
CC[C@@]12C=CCN3CC[C@]4(C(=C(C(=O)OC)C1)Nc1cc5c(cc14)[C@H]1[C@@H](O5)[C@H](O)[C@]4(CC)CC(C(=O)OC)=C5Nc6c(cc(O)c(OC)c6OC)[C@@]56CCN1[C@H]46)[C@H]32 (stereo in doubt) [Conophyllidine, conophyllidine]	2.01 µg/mL	0.02 µg/mL	1.41 µg/mL	0.30 µg/mL	0.00 µg/mL	2.19 µg/mL	4600 ng/mL	2200 ng/mL	3000 ng/mL	1500 ng/mL	11830 ng/mL	2420 ng/mL	5190 ng/mL	2500 ng/mL	8450 ng/mL	3270 ng/mL	activate regeneration of pancreatic β cells	gradually decreased (degraded)	very stable
CC[C@@]12CC(C(=O)OC)=C3Nc4cc5c(cc4[C@@]34CCN(C[C@H]3O[C@H]31)[C@@H]24)[C@@H]1[C@H](O5)[C@@H](O)[C@@]2(CC)CC(C(=O)OC)=C3Nc4c(cc(O)c(OC)c4OC)[C@@]34CCN1[C@@H]24 [Conophylline, conophylline]	2.62 µg/mL	0.04 µg/mL	2.22 µg/mL	0.48 µg/mL	0.00 µg/mL	2.39 µg/mL	3700 ng/mL	2100 ng/mL	2600 ng/mL	1500 ng/mL	8420 ng/mL	1740 ng/mL	3830 ng/mL	1870 ng/mL	4850 ng/mL	2520 ng/mL	activate regeneration of pancreatic β cells	–	–
